Experimental data as given in patent US7544693B2 (priority 2003, dated 2009).

Target: α7 nAChR subtype (Rattus norvegicus, UniProt Q05941)
Assay type: binding
Details: read-out: KD of radioligand (saturation curves, one site model)

Sequence of α7 nAChR subtype (Q05941 23-502 limits assumed): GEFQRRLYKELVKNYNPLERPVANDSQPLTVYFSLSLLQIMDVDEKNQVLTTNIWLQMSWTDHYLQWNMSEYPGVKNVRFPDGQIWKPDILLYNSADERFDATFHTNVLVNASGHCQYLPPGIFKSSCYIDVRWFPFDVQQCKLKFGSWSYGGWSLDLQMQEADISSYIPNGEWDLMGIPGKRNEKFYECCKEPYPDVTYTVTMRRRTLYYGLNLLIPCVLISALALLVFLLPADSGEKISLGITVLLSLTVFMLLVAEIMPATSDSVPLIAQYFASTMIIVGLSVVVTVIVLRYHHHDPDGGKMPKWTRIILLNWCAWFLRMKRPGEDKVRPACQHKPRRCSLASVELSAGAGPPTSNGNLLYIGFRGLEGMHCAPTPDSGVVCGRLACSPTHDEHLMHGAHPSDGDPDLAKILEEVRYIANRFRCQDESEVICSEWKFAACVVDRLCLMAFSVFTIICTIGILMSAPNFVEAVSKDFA

## [^125I]-α-Bungarotoxin [[^125I]-α-BTX]
  Kd: 1.67 nM
